Values quoted from earlier work as cited in patent publication US20240397942A1, “METHOD FOR PRODUCING REPELLENT OR ATTRACTANT FOR ORGANISMS, REPELLENT OR ATTRACTANT FOR ORGANISMS, AND METHOD FOR REPELLING OR ATTRACTING ORGANISMS” (Sony Group Corporation, priority 2021, published 2024).

Key:
Settings in all cases: in vivo
peach-potato aphids = tested on: peach-potato aphids
malaria mosquitoes = tested on: malaria mosquitoes
[1] = tested on: house dust mites (indoor mites)
flour beetles = tested on: flour beetles
Mexican bean beetles = tested on: Mexican bean beetles
giant assassin bugs = tested on: giant assassin bugs
sirex woodwasps = tested on: sirex woodwasps
[2] = tested on: plant hoppers (rice pests)
stink bugs = tested on: stink bugs
[3] = tested on: whiteflies (infection vector of tomato yellowing gangrene virus)
fruit flies = tested on: fruit flies
organisms = tested on: organisms
green tea leafhoppers = tested on: green tea leafhoppers
spider mites = tested on: spider mites
Asian tiger mosquitoes = tested on: Asian tiger mosquitoes

In the case of CCCCCC=O [Example 1-hexanal, 1-hexanal], the “attractant effect on peach-potato aphids” value (peach-potato aphids) is given as “attractant effect”.
In the case of CCCCCCCCCCCCCC [tetradodecane], the “repellent effect on malaria mosquitoes” value (malaria mosquitoes) is listed as “repellent effect”.
In the case of CCCCCCCC=O [Example 1-octanal, 1-octanal], the “attractant effect on house dust mites (indoor mites)” value [1] is listed as “attractant effect”.
For C=CCCCCCCCCCCCC [1-tetradecene], the “repellent effect on flour beetles” value (flour beetles) is listed as “repellent effect” and the “repellent effect on Mexican bean beetles” value (Mexican bean beetles) is listed as “repellent effect”.
For CC(=O)c1ccccc1 [acetophenone], the “repellent effect on giant assassin bugs” value (giant assassin bugs) is listed as “repellent effect”, the “repellent effect on sirex woodwasps” value (sirex woodwasps) is listed as “repellent effect” and the “attractive effect on plant hoppers (rice pests)” value [2] is listed as “attractive effect”. The “attractive effect on stink bugs” value (stink bugs) was “attractive effect”.
In the case of CCCCC(CC)CO (stereo not shown) [2-ethyl-1-hexanol], the “attractant effect on whiteflies” value [3] is given as “attractant effect”.
In the case of xylene, the “repellent effect on whiteflies” value [3] is given as “repellent effect”.
In the case of CC=O [acetaldehyde], the “attractive (attractant) effect on fruit flies” value (fruit flies) is given as “attractant effect”.
In the case of C=Cc1ccccc1 [styrene], the “repellent or attractant effect on organisms” value (organisms) is given as “no repellent or attractant effect”.
In the case of O=Cc1ccccc1 [benzaldehyde], the “attractive (attractant) effect on fruit flies” value (fruit flies) is given as “attractive effect”.
For hexadecene, the “repellent effect on green tea leafhoppers” value (green tea leafhoppers) is listed as “repellent effect”.
In the case of CCCCCCCCCC=O [Example 1-decanal, 1-decanal], the “attractant effect on house dust mites (indoor mites)” value [1] is listed as “attractant effect”.
In the case of CC(=O)CC(C)=O [acetylacetone], the “repellent effect on sirex woodwasps” value (sirex woodwasps) is listed as “repellent effect”.
In the case of CCCCCCCCCCCCCCCC [hexadecane], the “repellent effect on spider mites” value (spider mites) is given as “repellent effect”.
In the case of CC(=O)O [acetic acid], the “attractant effect on Asian tiger mosquitoes” value (Asian tiger mosquitoes) is given as “attractant effect”.
